Assay results from the NIST ThermoML archive (doi:10.1021/acs.jced.6b00750).

Experiment: xn = mol fraction of the nth substance listed
Conditions: Liquid; for mass density: Vibrating wire densiometer; for viscosity: Vibrating wire viscometry

C [methane] + CCCCCCCCCCCCCCCC
Conditions	mass density [kg/m3]	viscosity [mPa·s]
298.15 K, 10230 kPa, x1 = 0.1013	781.6	3.304
298.15 K, 19830 kPa, x1 = 0.1013	786.5	3.687
298.21 K, 20070 kPa, x1 = 0.2976	780.7	3.712
298.21 K, 30320 kPa, x1 = 0.2976	786	4.196
298.22 K, 10040 kPa, x1 = 0.2021	775.4	3.308
298.22 K, 19950 kPa, x1 = 0.2021	781.3	3.742
298.33 K, 13910 kPa, x1 = 0.3979	781.1	3.321
298.33 K, 20030 kPa, x1 = 0.3979	784.6	3.548
298.33 K, 30040 kPa, x1 = 0.3979	791	3.938
323.22 K, 10080 kPa, x1 = 0.1013	765.4	1.993
323.22 K, 20170 kPa, x1 = 0.1013	771.2	2.205
323.22 K, 40020 kPa, x1 = 0.1013	783.4	2.69
323.22 K, 60000 kPa, x1 = 0.1013	791.6	3.255
323.22 K, 78560 kPa, x1 = 0.1013	801.7	3.927
323.23 K, 20400 kPa, x1 = 0.2976	769.6	2.151
323.23 K, 21720 kPa, x1 = 0.2976	770.4	2.147
323.23 K, 21740 kPa, x1 = 0.2976	770.3	2.146
323.23 K, 40220 kPa, x1 = 0.2976	781.5	2.597
323.23 K, 60040 kPa, x1 = 0.2976	791.5	3.162
323.23 K, 79910 kPa, x1 = 0.2976	800.3	3.859
323.26 K, 14530 kPa, x1 = 0.3979	763.7	1.887
323.26 K, 14750 kPa, x1 = 0.3979	763.9	1.918
323.26 K, 20040 kPa, x1 = 0.3979	766.5	2.058
323.26 K, 40050 kPa, x1 = 0.3979	778.7	2.56
323.32 K, 10010 kPa, x1 = 0.2021	756.6	1.901
323.32 K, 20100 kPa, x1 = 0.2021	763.2	2.147
323.32 K, 39150 kPa, x1 = 0.2021	775.8	2.576
373.2 K, 10050 kPa, x1 = 0.2021	721.1	0.926
373.2 K, 12610 kPa, x1 = 0.2021	723.4	0.951
373.2 K, 20020 kPa, x1 = 0.2021	729.5	1.037
373.2 K, 40260 kPa, x1 = 0.2021	744.4	1.27
373.2 K, 60350 kPa, x1 = 0.2021	757.1	1.521
373.2 K, 65050 kPa, x1 = 0.2021	759.8	1.586
373.26 K, 10000 kPa, x1 = 0.1013	732.3	0.967
373.26 K, 20170 kPa, x1 = 0.1013	740.6	1.112
373.26 K, 40110 kPa, x1 = 0.1013	754.5	1.334
373.26 K, 60080 kPa, x1 = 0.1013	767.4	1.571
373.26 K, 80130 kPa, x1 = 0.1013	777.3	1.897
373.41 K, 24090 kPa, x1 = 0.2976	738.5	1.04
373.41 K, 24100 kPa, x1 = 0.2976	738.2	1.038
373.41 K, 40140 kPa, x1 = 0.2976	749.9	1.222
373.41 K, 60030 kPa, x1 = 0.2976	762.2	1.465
373.41 K, 80100 kPa, x1 = 0.2976	773.7	1.749
373.47 K, 16680 kPa, x1 = 0.3979	730.1	0.921
373.47 K, 16740 kPa, x1 = 0.3979	729.9	0.942
373.47 K, 20010 kPa, x1 = 0.3979	732.4	0.97
373.47 K, 40020 kPa, x1 = 0.3979	747.6	1.17
373.47 K, 54720 kPa, x1 = 0.3979	756.7	1.365
373.47 K, 56030 kPa, x1 = 0.3979	757.3	1.364
423.24 K, 10310 kPa, x1 = 0.2021	686.8	0.557
423.24 K, 10870 kPa, x1 = 0.2021	687.6	0.556
423.24 K, 10900 kPa, x1 = 0.2021	687.1	0.557
423.24 K, 20030 kPa, x1 = 0.2021	697.4	0.625
423.24 K, 40040 kPa, x1 = 0.2021	715.6	0.762
423.24 K, 60080 kPa, x1 = 0.2021	730.3	0.912
423.24 K, 80150 kPa, x1 = 0.2021	743.2	1.067
423.31 K, 15700 kPa, x1 = 0.1013	707.2	0.611
423.31 K, 20010 kPa, x1 = 0.1013	711.8	0.643
423.31 K, 40030 kPa, x1 = 0.1013	728	0.816
423.31 K, 60000 kPa, x1 = 0.1013	744.5	–
423.31 K, 80070 kPa, x1 = 0.1013	754.2	1.133
423.58 K, 20510 kPa, x1 = 0.2976	703.1	0.612
423.58 K, 20550 kPa, x1 = 0.2976	703.3	0.606
423.58 K, 22750 kPa, x1 = 0.2976	705.4	0.618
423.58 K, 40090 kPa, x1 = 0.2976	720.8	0.734
423.58 K, 60240 kPa, x1 = 0.2976	735.9	0.873
423.58 K, 80360 kPa, x1 = 0.2976	748.5	1.03
423.94 K, 16530 kPa, x1 = 0.3979	696.8	0.565
423.94 K, 16610 kPa, x1 = 0.3979	697.1	0.555
423.94 K, 20030 kPa, x1 = 0.3979	700.1	0.587
423.94 K, 40010 kPa, x1 = 0.3979	718.3	0.717
423.94 K, 56150 kPa, x1 = 0.3979	730.8	0.822
473.17 K, 40030 kPa, x1 = 0.1013	705.1	0.591
473.17 K, 60040 kPa, x1 = 0.1013	721.8	0.687
473.17 K, 80060 kPa, x1 = 0.1013	735.5	0.794
473.36 K, 12980 kPa, x1 = 0.2021	656.9	0.388
473.36 K, 13010 kPa, x1 = 0.2021	656.8	0.387
473.36 K, 20070 kPa, x1 = 0.2021	666.6	0.425
473.36 K, 40070 kPa, x1 = 0.2021	688.4	0.53
473.36 K, 60040 kPa, x1 = 0.2021	706.1	0.627
473.36 K, 80030 kPa, x1 = 0.2021	720.5	0.732
473.4 K, 24480 kPa, x1 = 0.2976	676.6	0.431
473.4 K, 24500 kPa, x1 = 0.2976	676.6	0.427
473.4 K, 40130 kPa, x1 = 0.2976	693.5	0.501
473.4 K, 60110 kPa, x1 = 0.2976	710.7	0.6
473.4 K, 79930 kPa, x1 = 0.2976	724.7	0.717
473.68 K, 22720 kPa, x1 = 0.3979	673.5	0.42
473.68 K, 25730 kPa, x1 = 0.3979	676.9	0.435
473.68 K, 40080 kPa, x1 = 0.3979	692.4	0.502
473.68 K, 60000 kPa, x1 = 0.3979	709.8	0.596
473.68 K, 80230 kPa, x1 = 0.3979	724.2	0.704
